Five molecules from patent publication EP1282604B1, “SUBSTITUTED CAPROLACTAM CARBONATES AND ETHERS AND THEIR USE AS ANTI-TUMOR AGENTS” (Novartis AG, priority 2000, dated 2001) can be followed below.

Structures are written as SMILES. Where two headings read alike, the source gives them in different places.

In series [1] the test system is MDA-MB-435 human breast carcinoma. The experiment in a line: Anchorage Dependent Growth Monolayer Assay (ADGMA), MTS readout. Format: cell-based. The settings on record: 3-day exposure, MDA-MB-435 cells, read-out: IC50 values (average ± S.D.) MDA-MB-435. From the text: (§1) As indicated above, all of the compounds of formula I, and their corresponding pharmaceutically acceptable acid addition salts, are anti-tumor agents and are, therefore, useful in inhibiting the growth of various lymphomas, sarcomas, carcinomas, myelomas, and leukemia cell lines. […] This assay was adapted from the 60 cell line assay used by the National Cancer Institute (NCl) with the following modifications: 1) cell lines representative for the important tumor types, viz., MDA-MB-435 human breast, A549 non-small cell lung, H1299 lung, HCT-116 colon and PC-3 prostate carcinomas, and U2OS osteosarcomas were utilized; and 2) a tetrazolium derivative, viz., 3-(4,5-dimethylthiazol-2-yl)-5-(3-carboxymethoxyphenyl)-2-(4-sulfophenyl)-2H-tetrazolium, inner salt (MTS), was utilized to determine cell density.
(§2) The ADGMA compares the number of viable cells following a 3-day exposure to a test compound relative to a number of cells present at the time the test compound was added. […] The absorbance at 490 nm (A490) of the formazan derivative is proportional to the number of viable cells. The IC50 for a test compound is the concentration of compound required to reduce the final cell number to 50% of the final control cell number. If cell proliferation is inhibited, the assay further defines compounds as cytostatic (cell number after 3-day compound incubation >cell number at time of compound addition) or cytotoxic (cell number after 3-day compound incubation <cell number at time of compound addition).
(§3) The MDA-MB-435 human breast carcinoma and the A549 non-small cell lung carcinoma lines were obtained from the American Type Culture Collection (ATCC) and used between passages 4-20 following thawing. MDA-MB-435 human breast carcinoma and A549 non-small cell lung carcinoma cells were maintained and plated in DME/F12 medium containing 10% fetal bovine serum, 15 mM HEPES (pH=7.4), 100 units/mL penicillin, and 100 µg/mL streptomycin.
(§4) Cell lines are trypsinized and counted using a Coulter counter to determine plating densities. Cells are then plated in their respective maintenance media (100 µL/well) in 96 well plates at the following densities: MDA-MB-435 and U2OS, 3,000 cells/well; A549 and HCT-116, 700 cells/well; H1299, 1,000 cells/well; and PC-3, 2500 cells/well. The number of cells plates as determined in preliminary experiments, results in cell densities of 75-90% of confluency by 4 days after plating. Initial cell densities, assayed one day after plating, are roughly 0.15-0.20 absorbance units greater than the media blank. Ninety-six well plates are seeded on day 0 and the test compounds are added on day 1. A control plate is created for each cell line that receives media only in row A and cells in row B. One day following plating, test compounds are added (in a final volume of 100 µL) to the test plates. Control plates receive 10 µL MTS mixture (prepared fresh on day of addition to cell plates at a ratio of 10 µL of a 0.92 mg/mL solution of PMS to a 190 µL of a 2 mg/mL solution of MTS) and 100 µL media. A490 of control plates is read 4 h after MTS addition to determine initial cell density values for each cell line. Three days after addition of test compound, 10 µL/well of MTS mixture is added to the test plates and A490 is read 4 h later. A490 values for wells containing cells are corrected for media absorbance, then normalized to initial density readings to determine percent net growth. IC50 values are determined from graphs of percent net growth as a function of compound concentration. Percent net growth is calculated as (Cell + Drug A490 - Initial A490/Cell + Drug Vehicle A490 - Initial A490) x 100%.

The test system of series [2] is A549 tumor xenografts. The experiment in a line: Human tumor xenograft growth inhibition in athymic nude mice. It is filed as in vivo. To be noted: 5X/week for 2 weeks; for Δ MTV / %T/C: recorded on day 24; for %T/C: * = p<0.05. On the procedure:
(§5) Utilizing this model, one can measure the ability of test compounds to inhibit the growth of human tumor xenografts growing subcutaneously (s.c.) in athymic nude mice. The histologic tumor type employed was MDA-MB-435 breast carcinoma for Ex.1 and 7 and A549 non-small cell lung carcinoma for Ex. 1-3.
A549 non-small cell lung carcinoma: Treatments were started 17 d post-implantation (1 x 10^7 cells/mouse), when a mean tumor volume of approximately 120 mm^3 was reached. Ex. 1-3 were administered iv on days 17-21 (followed by 2 d rest, then a second cycle of treatment on days 24-28). Total daily doses of 10 or 30 µmol/kg were administered as a single injection. Data in this table were recorded on day 24, 3 d after the last treatment of the first cycle. An asterisk (*) indicates p < 0.05 using a one-tailed Student's t-Test.
(§6) Toxicity was monitored by recording average group body weights twice weekly, and by daily observation of general health. Efficacy was monitored by taking measurements of tumor length, width, and depth weekly using digital calipers coupled to automated data collectors. Mean tumor volume (MTV) at initiation of therapy was subtracted from final MTV in order to express the actual tumor growth during treatment (A MTV). Anti-tumor activity was expressed as %T/C (A MTV of treated group ÷ Δ MTV of control group X100%). Statistical significance was evaluated using a one-tailed Student's t-test (p<0.05).
(A xenograft is tissue or cells of one species grown in another, often human tumour cells in immunodeficient mice.)

In series [3] the test system is HCT-116 colon carcinoma. Kind of series: Anchorage Dependent Growth Monolayer Assay (ADGMA), MTS readout. The settings on record: 3-day exposure, HCT-116 cells, read-out: IC50 values (average ± S.D.) HCT-116. Format: cell-based.
Excerpt: as §1, §2
(§7) The H1299 lung, HCT-116 colon, and PC-3 prostate carcinoma cell lines, and U2OS osteosarcoma cell line were obtained from the American Type Culture Collection (ATCC) and used between passages 4-20 following thawing. H1299 and HCT-116 cells were maintained in RPMI 1640 containing 10% FBS, 100 units/mL penicillin and 100 µg/mL streptomycin; PC-3 cells were maintained in Kahn's Modification containing 10% FBS, 100 units/mL penicillin and 100 µg/mL streptomycin; and U2OS cells were maintained in DMEM containing 10% FBS, 100 units/mL penicillin and 100 µg/mL streptomycin.
as §4

Series [4] deals with U2OS osteosarcoma. Described as above. Format: cell-based. The settings on record: 3-day exposure, U2OS cells, read-out: IC50 values (average ± S.D.) U2OS.
Excerpt: as §1, §2, §7, §4

Series [5] concerns H1299 lung carcinoma. The description is as above. Format: cell-based. The settings on record: 3-day exposure, H1299 cells, read-out: IC50 values (average ± S.D.) H1299.
Excerpt: as §1, §2, §7, §4

The test system of series [6] is MDA-MB-435 tumor xenografts. Kind of series: Human tumor xenograft growth inhibition in athymic nude mice. It is filed as in vivo. The settings on record: 3X/week for 3 weeks; for %T/C: * = p<0.05. The protocol: as §5
MDA-MB-435 human breast carcinoma: Treatments were started 15 d post implantation (3 x 10^6 cells/mouse), when a mean tumor volume of approximately 45 mm^3 was reached. Ex.1 and 7 were administered iv at three times per week for 3 weeks (days 15, 17, 20, 22, 24, 27, 29, and 31), at 3.3, 10, and 33 µmol/kg. Doxorubicin was administered iv at 2 mg/kg using the same schedule. Each data point represents tumor growth (mean ± SEM), or body weight (mean), with an initial group size of n = 8, from a representative experiment performed twice. An asterisk (*) indicates p < 0.05 using a one-tailed Student's t-test.
as §6

Series [7] relates to A549 non-small cell lung carcinoma. Kind of series: Anchorage Dependent Growth Monolayer Assay (ADGMA), MTS readout. Format: cell-based, human. The settings on record: 3-day exposure, A549 cells, read-out: IC50 values (average ± S.D.) A549.
Excerpt: as §1, §2, §3, §4

A word on the IC50: it is the concentration that gives 50% inhibition. Take `CCCCCCCCCCOC(=O)O[C@@H]1CC[C@H](NC(=O)[C@H](OC)[C@H](O)[C@@H](O)[C@H](O)/C=C/C(C)(C)C)C(=O)NC1` [Ex. 1, (2R, 3R, 4S, 5R, 6E)-3,4,5-trihydroxy-2-methoxy-8,8-dimethyl-N-[(3S, 6R)-hexahydro-2-oxo-6-([[decyloxy]carbonyl]oxy)-2H-azepin-3-yl]non-6-enonamide]: the IC50 is 210 ± 140 nM in series [1] (Homo sapiens, 72 h); 530 ± 350 nM in series [3] (Homo sapiens, 72 h); > 1000 nM in series [4] (Homo sapiens, 72 h); 570 ± 220 nM in series [5] (Homo sapiens, NCI-H1299, 72 h). For the same molecule, the Dead/Total in series [2] (10 µmol/kg iv daily), in series [2] (30 µmol/kg iv daily), in series [6] (3.3 µmol/kg iv), in series [6] (10 µmol/kg iv) and in series [6] (33 µmol/kg iv) was 0/8 each time. Further, the “Δ MTV” value is on record as 95 mm^3 in series [2] (10 µmol/kg iv daily); 39 mm^3 in series [2] (30 µmol/kg iv daily); 132 mm^3 in series [6] (3.3 µmol/kg iv); 162 mm^3 in series [6] (10 µmol/kg iv); 79 mm^3 in series [6] (33 µmol/kg iv). Besides, the “%T/C” value in series [2] (10 µmol/kg iv daily) is listed as 73%; in series [2] (30 µmol/kg iv daily) it was 30* %; in series [6] (3.3 µmol/kg iv), 74* %; in series [6] (10 µmol/kg iv), 90%; in series [6] (33 µmol/kg iv), 44* %.

For the molecule `CCCCCOC(=O)O[C@@H]1CC[C@H](NC(=O)[C@H](OC)[C@H](O)[C@@H](O)[C@H](O)/C=C/C(C)(C)C)C(=O)NC1` [Ex. 2, (2R, 3R, 4S, 5R, 6E)-3,4,5-trihydroxy-2-methoxy-8,8-dimethyl-N-[(3S, 6R)-hexahydro-2-oxo-6-([[pentyloxy]carbonyl]oxy)-2H-azepin-3-yl]non-6-enonamide], the IC50 in series [1] came to 70 ± 20 nM; in series [3], 170 ± 100 nM; in series [4], 90 ± 30 nM; in series [5], 210 ± 170 nM; in series [7], 117 ± 20 nM. Besides, the Dead/Total in series [2] (10 µmol/kg iv daily) and in series [2] (30 µmol/kg iv daily) was 0/8 each time. The “Δ MTV” value amounted to 42 mm^3 in series [2] (10 µmol/kg iv daily) and 60 mm^3 in series [2] (30 µmol/kg iv daily). Besides, the “%T/C” value in series [2] (10 µmol/kg iv daily) is listed as 32* %; in series [2] (30 µmol/kg iv daily) it was 46* %.

`CO[C@@H](C(=O)N[C@H]1CC[C@@H](OC(=O)OCC(C)(C)C)CNC1=O)[C@H](O)[C@@H](O)[C@H](O)/C=C/C(C)(C)C` [Ex. 5, (2R, 3R, 4S, 5R, 6E)-3,4,5-trihydroxy-2-methoxy-8,8-dimethyl-N-[(3S, 6R)-hexahydro-2-oxo-6-([[2,2-dimethylpropoxy]carbonyl]oxy)-2H-azepin-3-yl]non-6-enonamide]: the IC50 in series [1] (Homo sapiens, 72 h) was determined as 120 ± 20 nM; in series [3] (Homo sapiens, 72 h), 270 ± 100 nM; in series [4] (Homo sapiens, 72 h), 620 ± 160 nM; in series [5] (Homo sapiens, NCI-H1299, 72 h), 360 ± 120 nM; in series [7] (Homo sapiens, 72 h), 138 ± 8 nM.

Regarding `CO[C@@H](C(=O)N[C@H]1CC[C@@H](OC(=O)OC2CCCCC2)CNC1=O)[C@H](O)[C@@H](O)[C@H](O)/C=C/C(C)(C)C` [Ex. 6, (2R, 3R, 4S, 5R, 6E)-3,4,5-trihydroxy-2-methoxy-8,8-dimethyl-N-[(3S, 6R)-hexahydro-2-oxo-6-([[cyclohexyloxy]carbonyl]oxy)-2H-azepin-3-yl]non-6-enonamide], the IC50 in series [1] (Homo sapiens, 72 h) is 350 ± 110 nM; in series [3] (Homo sapiens, 72 h), 400 ± 120 nM; in series [4] (Homo sapiens, 72 h) it was 770 ± 400 nM; in series [5] (Homo sapiens, NCI-H1299, 72 h), 570 ± 290 nM; in series [7] (Homo sapiens, 72 h) it was 441 ± 63 nM.

For the molecule `CCCCCCCCCCCOCC(=O)O[C@@H]1CC[C@H](NC(=O)[C@H](OC)[C@H](O)[C@@H](O)[C@H](O)/C=C/C(C)(C)C)C(=O)NC1` [Ex. 7, (2R, 3R, 4S, 5R, 6E)-3,4,5-trihydroxy-2-methoxy-8,8-dimethyl-N-[(3S, 6R)-hexahydro-2-oxo-6-([[undecyloxy]acetyl]oxy)-2H-azepin-3-yl]non-6-enonamide], in series [6] (3.3 µmol/kg iv), the Dead/Total is 0/8, the “Δ MTV” value came out at 165 mm^3 and the “%T/C” value was found to be 102%. For the same molecule, in series [6] (10 µmol/kg iv), the Dead/Total is listed as 0/8, the “Δ MTV” value is reported as 103 mm^3 and the “%T/C” value turned out to be 64%. Besides, in series [6] (33 µmol/kg iv), the Dead/Total was 0/8, the “Δ MTV” value is listed as 48 mm^3 and the “%T/C” value is 30* %.
